Data on 15 compounds can be found in PubChem BioAssay (NCI).

Test systems include 786-0 renal; BT-549 breast; CCRF-CEM leukemia; DLD-1 colon; DMS 114 small cell lung; DMS 273 small cell lung; DU-145 prostate; LXFL 529 NSCLC; M19-MEL melanoma; MDA-MB-435; OVCAR-5 ovarian; SF-268 CNS; SNB-78 CNS; KM20L2 colon.
What all share (assay): NCI tumour cell line growth inhibition, 48 h

Several values for one entry are separate records, joined by “and”; a condition that tells them apart may be missing. Equal values may be shown once.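 Cultured in 96-well plates, cells were exposed to test compound for 48 hours across five concentrations. GI50: concentration for 50% inhibition of growth. At the TGI there is no net growth.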

With `O=S(=O)(O)c1cc(N=Nc2cc(S(=O)(=O)O)c3ccccc3c2O)ccc1/C=C/c1ccc(N=Nc2cc(S(=O)(=O)O)c3ccccc3c2O)cc1S(=O)(=O)O`, the TGI in the assay on 786-0 renal is above 1000 µM; in the assay on BT-549 breast, 552 µM; in the assay on CCRF-CEM leukemia it was 42.5 µM and 92.7 µM; in the assay on DLD-1 colon it was above 1000 µM; in the assay with DMS 114 small cell lung, above 1000 µM; in the assay on DMS 273 small cell lung, above 1000 µM. In addition, the TGI in the assay with DU-145 prostate is 712 µM; with LXFL 529 NSCLC, above 1000 µM; in the assay with M19-MEL melanoma it was above 1000 µM; in the assay with MDA-MB-435, 258 µM; with OVCAR-5 ovarian it was 472 µM; with SF-268 CNS, above 1000 µM. The same compound returned a TGI with SNB-78 CNS above 1000 µM. Besides, the GI50 with CCRF-CEM leukemia was 32.5 µM; in the assay with DLD-1 colon it was above 1000 µM; with DMS 114 small cell lung, above 1000 µM; with DMS 273 small cell lung, above 1000 µM; with M19-MEL melanoma, above 1000 µM; in the assay with SNB-78 CNS it was above 1000 µM.
Consider `Nc1ccc2ncc(Nc3ccc(F)cc3)nc2c1`, for which the TGI in the assay on 786-0 renal, in the assay on CCRF-CEM leukemia, in the assay with DLD-1 colon, with DMS 114 small cell lung, in the assay on DMS 273 small cell lung and with M19-MEL melanoma was above 100 µM throughout. Also, the TGI in the assay on OVCAR-5 ovarian, in the assay with SF-268 CNS and in the assay with SNB-78 CNS was above 100 µM throughout.
For the compound `COc1cc(C(C#N)NNC(=O)Cc2ccccc2)cc(OC)c1OC` (configuration not stated), the TGI in the assay on 786-0 renal, in the assay with DLD-1 colon, in the assay with DMS 114 small cell lung, with DMS 273 small cell lung, in the assay with KM20L2 colon and in the assay with LXFL 529 NSCLC was above 100 µM in each case. Also, the TGI in the assay on M19-MEL melanoma, with OVCAR-5 ovarian, with SF-268 CNS and in the assay with SNB-78 CNS was above 100 µM in each case.
Consider `Nc1ccc(C(=O)NN2C(=O)C(Cl)C2c2cc(Br)cc(Br)c2O)cc1` (configuration not stated), for which the TGI with 786-0 renal was above 100 µM; in the assay with CCRF-CEM leukemia, above 100 µM; in the assay on DLD-1 colon, above 100 µM; in the assay with DMS 114 small cell lung it was 25.4 µM; with DMS 273 small cell lung it was above 100 µM; in the assay with KM20L2 colon it was above 100 µM. In addition, the TGI with LXFL 529 NSCLC was above 100 µM; in the assay on M19-MEL melanoma, 48.3 µM; with OVCAR-5 ovarian, above 100 µM; in the assay with SF-268 CNS, 41.6 µM; with SNB-78 CNS, above 100 µM.
As to `Cc1ccc(C(=O)OC(C)C)cc1N=NN(C)C`, the TGI with 786-0 renal, with BT-549 breast, with CCRF-CEM leukemia, in the assay with DLD-1 colon, with DMS 273 small cell lung and with DU-145 prostate was above 100 µM in each case. The TGI in the assay on KM20L2 colon, in the assay on LXFL 529 NSCLC, in the assay on M19-MEL melanoma, in the assay with MDA-MB-435, in the assay with OVCAR-5 ovarian and in the assay with SF-268 CNS was above 100 µM each time. Further, in the assay on SNB-78 CNS, the TGI is above 100 µM.
Consider `COc1ccc([C@@H]2CC(=O)NCCCNCCCCNCCCN2)cc1`, for which the TGI in the assay on 786-0 renal, in the assay on CCRF-CEM leukemia, with DLD-1 colon, with DMS 114 small cell lung, in the assay on DMS 273 small cell lung and in the assay with KM20L2 colon was above 100 µM each time. Besides, the TGI in the assay with LXFL 529 NSCLC, in the assay on M19-MEL melanoma, in the assay on OVCAR-5 ovarian, with SF-268 CNS and with SNB-78 CNS was above 100 µM throughout.
As to `Cc1ccc(/C=C/C(=O)C(C)C)cc1`, the TGI in the assay with 786-0 renal is above 100 µM; with CCRF-CEM leukemia, 67.3 µM; with DLD-1 colon it was above 100 µM; in the assay on DMS 114 small cell lung it was above 100 µM; in the assay with KM20L2 colon it was above 100 µM; in the assay with LXFL 529 NSCLC, above 100 µM. The TGI in the assay with M19-MEL melanoma is above 100 µM; in the assay with OVCAR-5 ovarian, 53.7 µM; in the assay on SF-268 CNS it was above 100 µM; with SNB-78 CNS it was above 100 µM.
Turning to `CC(OC1CC(=O)CC2C(=O)C=CC(=O)C12)c1ccccc1` (configuration not stated), the TGI in the assay with 786-0 renal came out at 26.9 µM; in the assay with CCRF-CEM leukemia it was 9.54 µM; with DLD-1 colon, 26.7 µM; in the assay on DMS 114 small cell lung it was 23 µM; in the assay with DMS 273 small cell lung it was 33.8 µM; in the assay with KM20L2 colon, 31 µM. Besides, the TGI in the assay on LXFL 529 NSCLC came out at 19.8 µM; in the assay with M19-MEL melanoma, 29.8 µM; with OVCAR-5 ovarian, 31.6 µM; in the assay with SF-268 CNS it was 40.9 µM; with SNB-78 CNS, 36.3 µM.
Take `O=[N+]([O-])c1cc2c(cc1O)[nH]c1cccc([N+](=O)[O-])c12`: the TGI with 786-0 renal, in the assay with CCRF-CEM leukemia, with DLD-1 colon, in the assay with DMS 114 small cell lung, with DMS 273 small cell lung and with M19-MEL melanoma was above 100 µM in each case. Moreover, the TGI with OVCAR-5 ovarian, in the assay with SF-268 CNS and in the assay on SNB-78 CNS was above 100 µM each time.
Turning to `COc1cc2c(cc1O)[C@H](C)C(c1ccccc1OC)O2` (some centres not stated), the TGI with 786-0 renal is 50.5 µM; in the assay on CCRF-CEM leukemia, 30.6 µM; in the assay with DLD-1 colon it was above 100 µM; with DMS 114 small cell lung, 11 µM; with DMS 273 small cell lung, above 100 µM; with KM20L2 colon, 24.4 µM. The TGI with LXFL 529 NSCLC is 27.1 µM; in the assay with M19-MEL melanoma it was above 100 µM; in the assay on OVCAR-5 ovarian, above 100 µM; with SF-268 CNS, above 100 µM; in the assay with SNB-78 CNS, above 100 µM.
In the case of `Fc1ccc2c(c1)SC1Oc3ccccc3-c3c1c-2nn3-c1ccccc1` (configuration not stated), the TGI in the assay on 786-0 renal, in the assay on CCRF-CEM leukemia, with DLD-1 colon, with DMS 114 small cell lung, in the assay with DMS 273 small cell lung and in the assay on KM20L2 colon was above 100 µM in each case. Moreover, the TGI in the assay with LXFL 529 NSCLC, with M19-MEL melanoma, in the assay with OVCAR-5 ovarian, with SF-268 CNS and in the assay on SNB-78 CNS was above 100 µM throughout.
For `Cc1cc(Cl)ccc1NC(=O)C(=O)Cc1ccc([N+](=O)[O-])c([N+](=O)[O-])c1CC(=O)C(=O)Nc1ccc(Cl)cc1C`, the TGI with 786-0 renal, in the assay on CCRF-CEM leukemia, in the assay with DMS 114 small cell lung, with DMS 273 small cell lung, with KM20L2 colon and in the assay on LXFL 529 NSCLC was above 100 µM in each case. For the same compound, the TGI with M19-MEL melanoma, in the assay on OVCAR-5 ovarian, in the assay with SF-268 CNS and in the assay with SNB-78 CNS was above 100 µM throughout.
As to `O=C(CSc1nnc(Cc2ccccc2)o1)Nc1ccccc1Cl`, the TGI in the assay on 786-0 renal, in the assay on CCRF-CEM leukemia, with DLD-1 colon, in the assay with DMS 114 small cell lung, in the assay with DMS 273 small cell lung and with KM20L2 colon was above 100 µM in each case. Further, the TGI in the assay with LXFL 529 NSCLC, in the assay on M19-MEL melanoma, with OVCAR-5 ovarian, in the assay on SF-268 CNS and with SNB-78 CNS was above 100 µM each time.
Turning to `COc1cc2c(cc1OC)C(=O)Cc1ccc3c(c1CNCC2)OCO3`, the TGI in the assay on 786-0 renal, in the assay on CCRF-CEM leukemia, in the assay on DLD-1 colon, in the assay with DMS 114 small cell lung, with KM20L2 colon and in the assay on LXFL 529 NSCLC was above 100 µM in each case. Besides, the TGI in the assay on M19-MEL melanoma, in the assay with OVCAR-5 ovarian, in the assay on SF-268 CNS and with SNB-78 CNS was above 100 µM each time.
`Cc1nc2nn(Cc3ccccc3)cc2c(=O)o1`: the TGI with 786-0 renal, with CCRF-CEM leukemia, in the assay on DLD-1 colon, in the assay with DMS 114 small cell lung, with DMS 273 small cell lung and in the assay with KM20L2 colon was above 100 µM in each case. Besides, the TGI with LXFL 529 NSCLC, in the assay with M19-MEL melanoma, in the assay with OVCAR-5 ovarian, with SF-268 CNS and in the assay with SNB-78 CNS was above 100 µM throughout.
